pIC50: −log10 of the molar value.
System: KRAS patient-derived spheroids with HUVEC/MSC, viability
Test: Anticancer human tumor 519858-162-T-J1-PDC patient-derived colon adenocarcinoma cell line growth inhibition [KRAS2]
Details: for pIC50: curve of first compound; for viability, T/C: stronger effect = lower value; active means viability on the fitted dose curve at most 10% of control; inactive means the rest
In short: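 KRAS-mutant tumor cells were grown as spheroids with HUVEC endothelial cells and human MSCs as stroma. Targeted agents were tested alone and with KRAS pathway inhibitors. Doses started at or near clinical Cmax, or 10 microM, descending half-log.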

[1] = second compound 0.0316 µM, first compound 0.0316 µM
[2] = second compound 0.1 µM, first compound 0.0316 µM
[3] = second compound 0.316 µM, first compound 0.0316 µM
[4] = second compound 1 µM, first compound 0.0316 µM
[5] = second compound 3.16 µM, first compound 0.0316 µM
[6] = second compound 0.0316 µM, first compound 0.1 µM
[7] = second compound 0.0316 µM, first compound 0.316 µM
[8] = second compound 0.0316 µM, first compound 1 µM
[9] = second compound 0.0316 µM, first compound 3.16 µM
[10] = second compound 0.0316 µM, first compound 10 µM
[11] = second compound 0.1 µM, first compound 0.1 µM
[12] = second compound 0.1 µM, first compound 0.316 µM
[13] = second compound 0.1 µM, first compound 1 µM
[14] = second compound 0.1 µM, first compound 3.16 µM
[15] = second compound 0.1 µM, first compound 10 µM
[16] = second compound 0.316 µM, first compound 0.1 µM
[17] = second compound 0.316 µM, first compound 0.316 µM
[18] = second compound 0.316 µM, first compound 1 µM
[19] = second compound 0.316 µM, first compound 3.16 µM
[20] = second compound 0.316 µM, first compound 10 µM
[21] = second compound 1 µM, first compound 0.1 µM
[22] = second compound 1 µM, first compound 0.316 µM
[23] = second compound 1 µM, first compound 1 µM
[24] = second compound 1 µM, first compound 3.16 µM
[25] = second compound 1 µM, first compound 10 µM
[26] = second compound 3.16 µM, first compound 0.1 µM
[27] = second compound 3.16 µM, first compound 0.316 µM
[28] = second compound 3.16 µM, first compound 1 µM
[29] = second compound 3.16 µM, first compound 3.16 µM
[30] = second compound 3.16 µM, first compound 10 µM
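Further: compound exposure lasted seven days before readout.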
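Wherever viability, T/C is given: 100% = DMSO vehicle control viability.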

CC(=O)Nc1cccc(-n2c(=O)n(C3CC3)c(=O)c3c(Nc4ccc(I)cc4F)n(C)c(=O)c(C)c32)c1 + C=CC(=O)N1CCN(c2nc(OCC3CCCN3C)nc3c2CCN(c2cccc4cccc(C)c24)C3)CC1CC#N
8.45: pIC50 (second compound 0.0316 µM)
8.35: pIC50 (second compound 0.316 µM)
9.24: pIC50 (second compound 1 µM)
8.22: pIC50 (second compound 0.1 µM)
9.10: pIC50 (second compound 3.16 µM)
inactive: viability, T/C (second compound 0.0316 µM, first compound 0.0001 µM) 90.6% | viability, T/C (second compound 0.0316 µM, first compound 0.000316 µM) 76% | viability, T/C (second compound 0.0316 µM, first compound 0.001 µM) 65.5% | viability, T/C (second compound 0.0316 µM, first compound 0.00316 µM) 57.8% | viability, T/C (second compound 0.0316 µM, first compound 0.01 µM) 29.8% | viability, T/C [1] 19.4% | viability, T/C (second compound 0.1 µM, first compound 0.0001 µM) 59.7% | viability, T/C (second compound 0.1 µM, first compound 0.000316 µM) 62.1% | viability, T/C (second compound 0.1 µM, first compound 0.001 µM) 75.4% | viability, T/C (second compound 0.1 µM, first compound 0.00316 µM) 63.7% | viability, T/C (second compound 0.1 µM, first compound 0.01 µM) 38.5% | viability, T/C [2] 14.6% | viability, T/C (second compound 0.316 µM, first compound 0.0001 µM) 80% | viability, T/C (second compound 0.316 µM, first compound 0.000316 µM) 64% | viability, T/C (second compound 0.316 µM, first compound 0.001 µM) 82.4% | viability, T/C (second compound 0.316 µM, first compound 0.00316 µM) 58.1% | viability, T/C (second compound 0.316 µM, first compound 0.01 µM) 28.2% | viability, T/C [3] 17.5% | viability, T/C (second compound 1 µM, first compound 0.0001 µM) 63.1% | viability, T/C (second compound 1 µM, first compound 0.000316 µM) 42.1% | viability, T/C (second compound 1 µM, first compound 0.001 µM) 49.9% | viability, T/C (second compound 1 µM, first compound 0.00316 µM) 40% | viability, T/C (second compound 1 µM, first compound 0.01 µM) 31% | viability, T/C [4] 11.4% | viability, T/C (second compound 3.16 µM, first compound 0.0001 µM) 73.5% | viability, T/C (second compound 3.16 µM, first compound 0.000316 µM) 59.1% | viability, T/C (second compound 3.16 µM, first compound 0.001 µM) 41% | viability, T/C (second compound 3.16 µM, first compound 0.00316 µM) 44% | viability, T/C (second compound 3.16 µM, first compound 0.01 µM) 16.7%
active: viability, T/C [5] 7.17%

COC(=O)c1ccc2c(C(=Nc3ccc(N(C)C(=O)CN4CCN(C)CC4)cc3)c3ccccc3)c(O)[nH]c2c1 + C=CC(=O)N1CCN(c2nc(OCC3CCCN3C)nc3c2CCN(c2cccc4cccc(C)c24)C3)CC1CC#N
5.32: pIC50 (second compound 3.16 µM)
inactive: viability, T/C [1] 97.4% | viability, T/C [6] 113% | viability, T/C [7] 86.8% | viability, T/C [8] 97.8% | viability, T/C [9] 76.4% | viability, T/C [10] 106% | viability, T/C [2] 89% | viability, T/C [11] 89.5% | viability, T/C [12] 65.8% | viability, T/C [13] 68.4% | viability, T/C [14] 120% | viability, T/C [15] 68.7% | viability, T/C [3] 90.4% | viability, T/C [16] 73.5% | viability, T/C [17] 59.7% | viability, T/C [18] 66.7% | viability, T/C [19] 68.9% | viability, T/C [20] 76.9% | viability, T/C [4] 61.9% | viability, T/C [21] 74.7% | viability, T/C [22] 67.5% | viability, T/C [23] 57.1% | viability, T/C [24] 81.7% | viability, T/C [25] 147% | viability, T/C [5] 60.5% | viability, T/C [26] 75.1% | viability, T/C [27] 68.6% | viability, T/C [28] 109% | viability, T/C [29] 82.2%
< 5.00: pIC50 (second compound 0.0316 µM) | pIC50 (second compound 0.1 µM) | pIC50 (second compound 0.316 µM) | pIC50 (second compound 1 µM)
active: viability, T/C [30] 0.39%

COc1cc(Nc2ncc3c(n2)-c2ccc(Cl)cc2C(c2c(F)cccc2OC)=NC3)ccc1C(=O)O + C=CC(=O)N1CCN(c2nc(OCC3CCCN3C)nc3c2CCN(c2cccc4cccc(C)c24)C3)CC1CC#N
< 5.00: pIC50 (second compound 0.0316 µM) | pIC50 (second compound 0.1 µM) | pIC50 (second compound 0.316 µM) | pIC50 (second compound 1 µM) | pIC50 (second compound 3.16 µM)
inactive: viability, T/C [1] 104% | viability, T/C [6] 87.2% | viability, T/C [7] 97.3% | viability, T/C [8] 90.3% | viability, T/C [9] 74.6% | viability, T/C [10] 98% | viability, T/C [2] 89.1% | viability, T/C [11] 82.2% | viability, T/C [12] 102% | viability, T/C [13] 78.8% | viability, T/C [14] 90.5% | viability, T/C [15] 130% | viability, T/C [3] 105% | viability, T/C [16] 89.9% | viability, T/C [17] 63.2% | viability, T/C [18] 75% | viability, T/C [19] 82.5% | viability, T/C [20] 111% | viability, T/C [4] 103% | viability, T/C [21] 80.8% | viability, T/C [22] 66.8% | viability, T/C [23] 69.2% | viability, T/C [24] 99.8% | viability, T/C [25] 110% | viability, T/C [5] 74.5% | viability, T/C [26] 83% | viability, T/C [27] 75.3% | viability, T/C [28] 77.2% | viability, T/C [29] 109% | viability, T/C [30] 74.3%

O=C(c1cc(Cc2n[nH]c(=O)c3ccccc23)ccc1F)N1CCN(C(=O)C2CC2)CC1 + C=CC(=O)N1CCN(c2nc(OCC3CCCN3C)nc3c2CCN(c2cccc4cccc(C)c24)C3)CC1CC#N
inactive: viability, T/C [1] 82.5% | viability, T/C [6] 90.2% | viability, T/C [7] 80.3% | viability, T/C [8] 86.8% | viability, T/C [9] 71.2% | viability, T/C [10] 93.3% | viability, T/C [2] 72.9% | viability, T/C [11] 115% | viability, T/C [12] 102% | viability, T/C [13] 101% | viability, T/C [14] 102% | viability, T/C [15] 101% | viability, T/C [3] 70.3% | viability, T/C [16] 94.5% | viability, T/C [17] 83.7% | viability, T/C [18] 84.5% | viability, T/C [19] 85.4% | viability, T/C [20] 98.7% | viability, T/C [4] 91.2% | viability, T/C [21] 71.3% | viability, T/C [22] 112% | viability, T/C [23] 97.5% | viability, T/C [24] 86.9% | viability, T/C [25] 96.9% | viability, T/C [5] 79.2% | viability, T/C [26] 69.4% | viability, T/C [27] 60.8% | viability, T/C [28] 85.6% | viability, T/C [29] 98% | viability, T/C [30] 80.2%
< 5.00: pIC50 (second compound 0.0316 µM) | pIC50 (second compound 0.1 µM) | pIC50 (second compound 0.316 µM) | pIC50 (second compound 1 µM) | pIC50 (second compound 3.16 µM)

Source: PubChem BioAssay AID1963872 (Molecular Pharmacology Branch, DTP, NCI, 2024)
